{"source": "PubChem BioAssay (NCI)", "experiment_in_all_cases": "NCI-60 cell line screen, 384-well format", "key": {"NCI-H522 lung": {"system": "NCI-H522 lung"}, "NCI/ADR-RES ovarian": {"system": "NCI/ADR-RES ovarian"}, "OVCAR-4 ovarian": {"system": "OVCAR-4 ovarian"}, "OVCAR-5 ovarian": {"system": "OVCAR-5 ovarian"}, "OVCAR-8 ovarian": {"system": "OVCAR-8 ovarian"}, "RPMI-8226 leukemia": {"system": "RPMI-8226 leukemia"}, "RXF 393 renal": {"system": "RXF 393 renal"}, "SF-268 CNS": {"system": "SF-268 CNS"}, "SF-295 CNS": {"system": "SF-295 CNS"}, "SF-539 CNS": {"system": "SF-539 CNS"}, "SK-MEL-2 melanoma": {"system": "SK-MEL-2 melanoma"}, "SK-MEL-28 melanoma": {"system": "SK-MEL-28 melanoma"}, "SK-MEL-5 melanoma": {"system": "SK-MEL-5 melanoma"}, "SK-OV-3 ovarian": {"system": "SK-OV-3 ovarian"}, "SN12C renal": {"system": "SN12C renal"}, "SNB-19 CNS": {"system": "SNB-19 CNS"}, "SNB-75 CNS": {"system": "SNB-75 CNS"}, "SR leukemia": {"system": "SR leukemia"}, "SW-620 colon": {"system": "SW-620 colon"}, "T-47D breast": {"system": "T-47D breast"}, "TK-10 renal": {"system": "TK-10 renal"}, "U251 glioblastoma": {"system": "U251 glioblastoma"}, "UACC-257 melanoma": {"system": "UACC-257 melanoma"}, "UACC-62 melanoma": {"system": "UACC-62 melanoma"}}, "note": "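GI50: concentration for 50% inhibition of growth. TGI: concentration producing complete growth inhibition.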"}
{"smiles": "C[C@@H](Nc1nc(N[C@H](C)C(F)(F)F)nc(-c2cccc(Cl)n2)n1)C(F)(F)F", "values": [{"measurement": "TGI", "setting": "NCI-H522 lung", "result": "> 100", "unit": "µM"}, {"measurement": "GI50", "setting": "NCI/ADR-RES ovarian", "result": "> 82.3", "unit": "µM"}, {"measurement": "TGI", "setting": "NCI/ADR-RES ovarian", "result": "> 100", "unit": "µM"}, {"measurement": "GI50", "setting": "OVCAR-4 ovarian", "result": 21.7, "unit": "µM"}, {"measurement": "TGI", "setting": "OVCAR-4 ovarian", "result": 55, "unit": "µM"}, {"measurement": "GI50", "setting": "OVCAR-5 ovarian", "result": "> 100", "unit": "µM"}, {"measurement": "TGI", "setting": "OVCAR-5 ovarian", "result": "> 100", "unit": "µM"}, {"measurement": "GI50", "setting": "OVCAR-8 ovarian", "result": 47.2, "unit": "µM"}, {"measurement": "TGI", "setting": "OVCAR-8 ovarian", "result": "> 100", "unit": "µM"}, {"measurement": "GI50", "setting": "RPMI-8226 leukemia", "result": "> 75.8", "unit": "µM"}, {"measurement": "TGI", "setting": "RPMI-8226 leukemia", "result": "> 100", "unit": "µM"}, {"measurement": "GI50", "setting": "RXF 393 renal", "result": 24.2, "unit": "µM"}, {"measurement": "TGI", "setting": "RXF 393 renal", "result": 58.8, "unit": "µM"}, {"measurement": "GI50", "setting": "SF-268 CNS", "result": 39.6, "unit": "µM"}, {"measurement": "TGI", "setting": "SF-268 CNS", "result": "> 100", "unit": "µM"}, {"measurement": "GI50", "setting": "SF-295 CNS", "result": "> 83.8", "unit": "µM"}, {"measurement": "TGI", "setting": "SF-295 CNS", "result": "> 100", "unit": "µM"}, {"measurement": "GI50", "setting": "SF-539 CNS", "result": "> 69.1", "unit": "µM"}, {"measurement": "TGI", "setting": "SF-539 CNS", "result": "> 100", "unit": "µM"}, {"measurement": "GI50", "setting": "SK-MEL-2 melanoma", "result": 14.6, "unit": "µM"}, {"measurement": "TGI", "setting": "SK-MEL-2 melanoma", "result": 30.2, "unit": "µM"}, {"measurement": "GI50", "setting": "SK-MEL-28 melanoma", "result": "> 100", "unit": "µM"}, {"measurement": "TGI", "setting": "SK-MEL-28 melanoma", "result": "> 100", "unit": "µM"}, {"measurement": "GI50", "setting": "SK-MEL-5 melanoma", "result": 28.2, "unit": "µM"}, {"measurement": "TGI", "setting": "SK-MEL-5 melanoma", "result": "> 100", "unit": "µM"}, {"measurement": "GI50", "setting": "SK-OV-3 ovarian", "result": "> 100", "unit": "µM"}, {"measurement": "TGI", "setting": "SK-OV-3 ovarian", "result": "> 100", "unit": "µM"}, {"measurement": "GI50", "setting": "SN12C renal", "result": "> 62.6", "unit": "µM"}, {"measurement": "TGI", "setting": "SN12C renal", "result": "> 100", "unit": "µM"}, {"measurement": "GI50", "setting": "SNB-19 CNS", "result": "> 82.4", "unit": "µM"}, {"measurement": "TGI", "setting": "SNB-19 CNS", "result": "> 100", "unit": "µM"}, {"measurement": "GI50", "setting": "SNB-75 CNS", "result": 29.5, "unit": "µM"}, {"measurement": "TGI", "setting": "SNB-75 CNS", "result": "> 75.4", "unit": "µM"}, {"measurement": "GI50", "setting": "SR leukemia", "result": "> 77.3", "unit": "µM"}, {"measurement": "TGI", "setting": "SR leukemia", "result": "> 100", "unit": "µM"}, {"measurement": "GI50", "setting": "SW-620 colon", "result": "> 49.5", "unit": "µM"}, {"measurement": "TGI", "setting": "SW-620 colon", "result": "> 70.6", "unit": "µM"}, {"measurement": "GI50", "setting": "T-47D breast", "result": "> 84.3", "unit": "µM"}, {"measurement": "TGI", "setting": "T-47D breast", "result": "> 100", "unit": "µM"}, {"measurement": "GI50", "setting": "TK-10 renal", "result": "> 52.4", "unit": "µM"}, {"measurement": "TGI", "setting": "TK-10 renal", "result": "> 90.1", "unit": "µM"}, {"measurement": "GI50", "setting": "U251 glioblastoma", "result": 40, "unit": "µM"}, {"measurement": "TGI", "setting": "U251 glioblastoma", "result": "> 100", "unit": "µM"}, {"measurement": "GI50", "setting": "UACC-257 melanoma", "result": 98.4, "unit": "µM"}, {"measurement": "TGI", "setting": "UACC-257 melanoma", "result": "> 100", "unit": "µM"}, {"measurement": "GI50", "setting": "UACC-62 melanoma", "result": 38.6, "unit": "µM"}, {"measurement": "TGI", "setting": "UACC-62 melanoma", "result": "> 76.9", "unit": "µM"}]}
